In patent US7271168B2, “Piperazine derivatives having SST1 antagonistic activity” (Novartis AG, priority 2001, dated 2007):
pKd: −log10 of the molar value. Read-outs that look alike come from different tables or passages of the source.

Legend:
[1] = target: T1, Somatostatin sst1 receptors (Homo sapiens, UniProt P30872); assay: somatostatin receptor affinity (pKd), human; assay type: binding
From the text: (§1) The following pKd values have been found:

[2] = test system: intruder rat; assay: intruder test (intruder rat towards resident rat); assay type: in vivo
[3] = target: somatostatin receptors (sst1) (Rattus norvegicus, UniProt P28646); assay: somatostatin receptor affinity (pKd), rat; assay type: binding
From the text: as §1

[4] = test system: mice; assay: social recognition test; assay type: in vivo; settings: social recognition test in mice
Procedure: Moreover when given at doses of about 0.03 to 3 mg/kg p.o. to rodents, the agents of the invention counteract electroshock-induced amnesia, increase retention performance in a passive avoidance paradigm (Mondadori et. al., Pharmacology Communications 1992, 2: 93-97) and improve social recognition (Mondadori et al., Behavioural Brain Research 1996, 77: 227-229). The compounds are therefore indicated for the treatment of cognitive disturbances and learning/memory disorders.

[5] = target: somatostatin receptors (sst1) (Mus musculus, UniProt P30873); assay: somatostatin receptor affinity (pKd), mouse; assay type: binding
From the text: as §1

[6] = target: T1, Somatostatin sst1 receptors

T1 sequence (P30872 whole entry): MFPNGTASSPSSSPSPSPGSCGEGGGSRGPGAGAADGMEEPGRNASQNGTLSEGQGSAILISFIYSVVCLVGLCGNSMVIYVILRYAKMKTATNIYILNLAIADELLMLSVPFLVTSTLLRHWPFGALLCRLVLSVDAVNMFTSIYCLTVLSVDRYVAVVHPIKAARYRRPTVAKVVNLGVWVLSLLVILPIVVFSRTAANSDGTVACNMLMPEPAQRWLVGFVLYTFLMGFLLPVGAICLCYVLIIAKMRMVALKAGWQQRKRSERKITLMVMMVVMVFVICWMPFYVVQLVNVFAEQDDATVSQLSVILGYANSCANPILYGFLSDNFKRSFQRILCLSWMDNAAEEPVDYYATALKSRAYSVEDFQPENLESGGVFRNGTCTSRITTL
Chain of somatostatin receptors (sst1) (Rattus norvegicus, UniProt P28646) (P28646 whole entry): as the sequence (P30872 whole entry) above, with S8P, S11T, P16S, S20G, G25V, G26C, A32S, A45S, T385A, T389S counted along it
Chain of somatostatin receptors (sst1) (Mus musculus, UniProt P30873) (P30873 whole entry): as the sequence (P30872 whole entry) above, with G25A, G26C, A32S, T385A, T389S counted along it

SMILES | pKd [1] | duration of social contacts of the intruder rat towards the resident rat [2] | pKd [3] | learning/memory performance [4] | pKd [5] | selectivity among somatostatin receptors [6] | Kd ([3]; rat, read-out: pKd (converted))
CN(CCC(=O)N1CCN(c2ccc(F)c(F)c2)CC1)CCC1c2ccccc2Oc2ccccc21 [Compound A, 1-[4-(3,4-difluoro-phenyl)-piperazin-1-yl]-3-{methyl-[2-(9H-xanthen-9-yl)-ethyl]-amino}-propan-1-one] | 8.30 to 8.80 | significantly increase | 9.10 | specific enhancing effect | 8.00 to 8.40 | – | –
CN(CCC(=O)N1CCN(c2ccc(F)c(F)c2)CC1)CCC1c2ccccc2-c2ccccc21 [Compound B, 1-[4-(3,4-difluoro-phenyl)-piperazin-1-yl]-3-{[2-(9H-fluoren-9-yl)-ethyl]-methyl-amino}-propan-1-one] | 8.20 to 8.60 | significantly increase | – | specific enhancing effect | 8.30 to 8.60 | sst1 selective | 0.501 nM
